In patent US11827616B2, “Heterocyclic compounds as pesticides” (Discovery Purchaser Corporation, priority 2018, dated 2023):
Read-outs that look alike come from different tables or passages of the source.

Assays:
Assay type in all cases: in vivo
Tetranychus urticae = Tetranychus urticae spray test, OP-resistant; conditions: application rate 500 g/ha; after 6 days
Description: Tetranychus urticae—Spray Test, OP-Resistant
Solvent: 78.0 Parts by Weight of Acetone • • 1.5 parts by weight of dimethylformamide
(§1) Emulsifier: alkylaryl polyglycol ether
(§2) To produce a suitable active compound formulation, 1 part by weight of active compound is dissolved with the specified parts by weight of solvent and made up to the desired concentration with water containing an emulsifier concentration of 1000 ppm. To produce further test concentrations, the formulation is diluted with emulsifier-containing water.
Discs of bean leaves (Phaseolus vulgaris) infested with all stages of the greenhouse red spider mite (Tetranychus urticae) are sprayed with an active compound formulation of the desired concentration.
After 6 days, the efficacy in % is determined. 100% means that all the spider mites have been killed; 0% means that no spider mites have been killed.

Spodoptera frugiperda = Spodoptera frugiperda spray test; conditions: for pest or weed control at 500 g/ha: Spodoptera frugiperda, 168 h, read-out: efficacy
Description: Spodoptera frugiperda—Spray Test
(§3) Solvent: 78.0 parts by weight of acetone • • 1.5 parts by weight of dimethylformamide
as §1, §2
Leaf discs of maize (Zea mays) are sprayed with an active compound formulation of the desired concentration and, after drying, populated with caterpillars of the fall armyworm (Spodoptera frugiperda).
After 7 days, the efficacy in % is determined. 100% means that all the caterpillars have been killed; 0% means that no caterpillar has been killed.

Phaedon cochleariae = Phaedon cochleariae spray test; conditions: for pest or weed control at 500 g/ha: Phaedon cochleariae, 168 h, read-out: efficacy
Description: Phaedon cochleariae—Spray Test
as §3, §1, §2
Discs of Chinese cabbage leaves (Brassica pekinensis) are sprayed with an active compound formulation of the desired concentration and, after drying, populated with larvae of the mustard beetle (Phaedon cochleariae).
After 7 days, the efficacy in % is determined. 100% means that all the beetle larvae have been killed; 0% means that no beetle larvae have been killed.

Rhipicephalus sanguineus = Rhipicephalus sanguineus in vitro contact test with adult brown dog ticks; conditions: application rate 5 μg/cm^2 (=500 g/ha); after 48 h
Description: Rhipicephalus sanguineus—In Vitro Contact Tests with Adult Brown Dog Ticks
(§4) For the coating of the test tubes, 9 mg of active compound are first dissolved in 1 ml of acetone p.a. and then diluted to the desired concentration with acetone p.a. 250 μl of the solution are distributed homogeneously on the inner walls and the base of a 25 ml glass tube by turning and rocking on an orbital shaker (rocking rotation at 30 rpm for 2 h). With 900 ppm of active compound solution and internal surface area 44.7 cm^2, given homogeneous distribution, an area-based dose of 5 μg/cm^2 is achieved.
After the solvent has evaporated off, the tubes are populated with 5-10 adult dog ticks (Rhipicephalus sanguineus), sealed with a perforated plastic lid and incubated in a horizontal position in the dark at room temperature and ambient humidity. After 48 h, efficacy is determined. To this end, the ticks are knocked to the base of the tube and incubated on a hotplate at 45-50° C. for not more than 5 min. Ticks which remain motionless on the base or move in such an uncoordinated manner that they are unable to deliberately avoid the heat by climbing upwards are considered to be dead or moribund.
An efficacy of 100% means that all the ticks were dead or moribund. 0% efficacy means that none of the ticks were harmed.

Boophilus microplus = Boophilus microplus injection test; conditions: for pest or weed control at 0.02 mg: Rhipicephalus microplus, 168 h
Description: Boophilus microplus—Injection Test
(§5) Solvent: dimethyl sulfoxide
To produce a suitable active compound formulation, 10 mg of active compound are mixed with 0.5 ml of solvent and the concentrate is diluted to the desired concentration with solvent.
1 μl of the active compound solution is injected into the abdomen of 5 engorged adult female cattle ticks (Boophilus microplus). The animals are transferred into dishes and kept in a climate-controlled room.
Efficacy is assessed after 7 days by laying of fertile eggs. Eggs which are not visibly fertile are stored in a climate-controlled cabinet until the larvae hatch after about 42 days. An efficacy of 100% means that none of the ticks has laid any fertile eggs; 0% means that all the eggs are fertile.

Ctenocephalides felis = Ctenocephalides felis in vitro contact test with adult cat fleas; conditions: application rate 5 μg/cm^2 (=500 g/ha); after 48 h
Description: Ctenocephalides felis—In Vitro Contact Tests with Adult Cat Fleas
as §4
After the solvent has evaporated off, the tubes are populated with 5-10 adult cat fleas (Ctenocephalides felis), sealed with a perforated plastic lid and incubated in a horizontal position at room temperature and ambient humidity. After 48 h, efficacy is determined. To this end, the tubes are stood upright and the fleas are knocked to the base of the tube. Fleas which remain motionless at the base or move in an uncoordinated manner are considered to be dead or moribund.
100% efficacy means that all the fleas were dead or moribund. 0% efficacy means that no fleas were harmed.

Lucilia cuprina = Lucilia cuprina test; conditions: application rate 100 ppm; L1 larvae; after 2 days
Description: as §5
To produce a suitable active compound formulation, 10 mg of active compound are mixed with 0.5 ml of dimethyl sulfoxide, and the concentrate is diluted with water to the desired concentration.
About 20 L1 larvae of the Australian sheep blowfly (Lucilia cuprina) are transferred into a test vessel containing minced horsemeat and the active compound formulation of the desired concentration.
After 2 days, the kill in % is determined. 100% means that all the larvae have been killed; 0% means that no larvae have been killed.

[1] = application rate 500 g/ha, after 7 days
[2] = application rate 20 μg/animal, after 7 days

Row | Compound | efficacy (Spodoptera frugiperda; [1]) [%] | efficacy (Phaedon cochleariae; [1]) [%] | efficacy (laying of fertile eggs) (Boophilus microplus; [2]) [%] | further results
1 | CON(C)CCOc1ncc(COc2ccc(Cl)c3ccccc23)cc1Cl [Example 7] | – | – | – | efficacy (Tetranychus urticae): 100%
2 | CON(C)CCOc1ccc(COc2ccc3oc4ccccc4c3c2)cn1 [Example 8] | 100 | 100 | – | –
3 | CCN(CC)CCOc1ccc(COc2cccc3c(Cl)c(Cl)ccc23)cn1 [Example 9] | 100 | 83 | 90 | efficacy (ticks dead or moribund) (Rhipicephalus sanguineus): 100%; efficacy (fleas dead or moribund) (Ctenocephalides felis): 100%
4 | CON(C)CCOc1ccc(COc2cccc3c(Cl)c(Cl)ccc23)nc1Cl [Example 18] | 100 | – | 100 | –
5 | CON(C)CCOc1cnc(COc2cccc3c(F)cccc23)c(F)c1 [Example 24] | 83 | – | 100 | efficacy (ticks dead or moribund) (Rhipicephalus sanguineus): 100%; efficacy (fleas dead or moribund) (Ctenocephalides felis): 100%
6 | CON(C)CCOc1cnc(COc2ccc(Cl)c3ccccc23)c(Cl)c1 [Example 25] | 100 | – | 100 | –
7 | CN(CC#N)CCOc1cnc(COc2cccc3c(Cl)c(Cl)ccc23)c(F)c1 [Example 28] | – | – | 100 | efficacy (ticks dead or moribund) (Rhipicephalus sanguineus): 100%; efficacy (kill in %) (Lucilia cuprina): 100%
8 | CON(C)CCOc1ccc(COc2ccc3oc4ccccc4c3c2)nc1 [Example 31] | 100 | 100 | 100 | efficacy (ticks dead or moribund) (Rhipicephalus sanguineus): 100%; efficacy (kill in %) (Lucilia cuprina): 100%
9 | CCN(CC)CCOc1cnc(COc2cccc3c(Cl)c(Cl)ccc23)c(F)c1 [Example 32, 2-[(6-{[(5,6-dichloro-1-naphthyl)oxy]methyl}-5-fluoropyridin-3-yl)oxy]-N,N-diethylethanamine] | – | – | – | pest or weed control at 500 g/ha (Spodoptera frugiperda; [1]): 100%; efficacy (Tetranychus urticae): 90%; pest or weed control at 0.02 mg (Boophilus microplus; application rate 20 μg/animal, after 7 days, read-out: efficacy (laying of fertile eggs)): 100%; efficacy (fleas dead or moribund) (Ctenocephalides felis): 100%
10 | CCN(CC)CCOc1ccc(COc2cccc3c(Cl)c(Cl)ccc23)nc1 [Example 33] | 100 | 100 | 80 | –
11 | CN(CCOc1cnc(COc2ccc3oc4ccccc4c3c2)c(F)c1)C(C)(C)C [Example 34] | 100 | 100 | 80 | efficacy (Tetranychus urticae): 90%
12 | CN(CCOc1cnc(COc2ccc3oc4ccccc4c3c2)c(F)c1)C(C)(C)C.Cl [Example 35] | – | 83 | – | –
13 | CN(CCOc1cnc(COc2cccc3c(Cl)c(Cl)ccc23)c(F)c1)C(C)(C)C [Example 36, N-{2-[(6-{[(5,6-dichloro-1-naphthyl)oxy]methyl}-5-fluoropyridin-3-yl)oxy]ethyl}-N,2-dimethylpropan-2-amine] | – | – | – | pest or weed control at 500 g/ha (Spodoptera frugiperda): 100%; pest or weed control at 0.02 mg (Boophilus microplus; read-out: efficacy (laying of fertile eggs), application rate 20 μg/animal, after 7 days): 100%; pest or weed control at 500 g/ha (Phaedon cochleariae): 100%
14 | CN(CCOc1cnc(COc2cccc3c(Cl)c(Cl)ccc23)c(F)c1)C(C)(C)C [Example 37, N-{2-[(6-{[(5,6-dichloro-1-naphthyl)oxy]methyl}-5-fluoropyridin-3-yl)oxy]ethyl}-N,2-dimethylpropan-2-aminium chloride] | 100 | 100 | 80 | efficacy (fleas dead or moribund) (Ctenocephalides felis): 100%
15 | CC(C)(C)NCCOc1cnc(COc2cccc3c(Cl)c(Cl)ccc23)c(F)c1 [Example 38] | 100 | 100 | 100 | efficacy (kill in %) (Lucilia cuprina): 80%
16 | CC(C)N(CCOc1cnc(COc2ccc3oc4ccccc4c3c2)c(F)c1)C(C)C [Example 40] | – | 100 | – | –
17 | Fc1cc(OCCN2CCCCC2)cnc1COc1ccc2oc3ccccc3c2c1 [Example 41] | – | – | – | efficacy (Tetranychus urticae): 90%

Row | Compound | efficacy (Spodoptera frugiperda; [1]) [%] | efficacy (Phaedon cochleariae; [1]) [%] | efficacy (laying of fertile eggs) (Boophilus microplus; [2]) [%] | further results
18 | Fc1cc(OCCN2CCCCC2)cnc1COc1cccc2c(Cl)c(Cl)ccc12 [Example 42] | 100 | – | – | –
19 | CC(C)N(C)CCOc1cnc(COc2ccc3oc4ccccc4c3c2)c(F)c1 [Example 43] | – | 100 | – | –
20 | CCN1CCN(c2cnc(COc3cccc4c(Cl)c(Cl)ccc34)c(F)c2)CC1 [Example 45] | 100 | 100 | – | –
21 | CCN1CCN(c2cnc(COc3ccc4oc5ccccc5c4c3)c(F)c2)CC1 [Example 46] | 83 | – | – | –
22 | CN(CCOc1cnc(COc2ccc(F)c(-c3cccc(OC(F)(F)F)c3)c2)c(F)c1)C(C)(C)C [Example 51] | 100 | 83 | – | efficacy (Tetranychus urticae): 100%
23 | CON(C)CCOc1ccc(COc2cccc3c(Cl)c(Cl)ccc23)nc1SC [Example 52, 2-{[6-{[(5,6-dichloro-1-naphthyl)oxy]methyl}-2-(methylsulfanyl)pyridin-3-yl]oxy}-N-methoxy-N-methylethanamine] | – | – | – | pest or weed control at 500 g/ha (Spodoptera frugiperda; [1]): 100%; pest or weed control at 500 g/ha (Phaedon cochleariae; [1]): 100%
24 | CN(CCOc1cnc(COc2cccc(-c3cccc(OC(F)(F)F)c3)c2)c(F)c1)C(C)(C)C [Example 66] | 100 | 100 | – | –
25 | CON(C)CCOc1ccc(COc2ccc(Cl)c(OC(F)(F)F)c2)nc1 [Example 73] | – | – | 80 | efficacy (Tetranychus urticae): 100%
26 | CN(CCOc1cnc(COc2ccc(F)c(-c3cccc(OC(F)(F)F)c3)c2)c(F)c1)C(C)(C)C.Cl [Example 77] | 100 | 83 | – | efficacy (kill in %) (Lucilia cuprina): 90%
27 | CC(C)N(CCOc1cnc(COc2ccc(Cl)c(OC(F)(F)F)c2)c(F)c1)C(C)C [Example 79] | – | 100 | – | –
28 | CON(C)CCOc1cnc(COc2cccc(-c3cccc(Cl)c3)c2)c(F)c1 [Example 80] | 83 | 100 | 100 | efficacy (ticks dead or moribund) (Rhipicephalus sanguineus): 100%; efficacy (kill in %) (Lucilia cuprina): 100%
29 | CON(C)CCOc1cnc(COc2ccc(F)c(Br)c2)c(F)c1 [Example 83] | – | – | 80 | efficacy (Tetranychus urticae): 100%
30 | CON(C)CCOc1cnc(COc2cccc(-c3cccc(F)c3)c2)c(F)c1 [Example 85] | 83 | – | – | –
31 | COc1cc(OCCN(C)OC)cnc1COc1ccc(Cl)c2ccccc12 [Example 91] | – | 83 | 100 | efficacy (kill in %) (Lucilia cuprina): 80%
32 | COc1cc(OCCN(C)OC)cnc1COc1cccc2c(Cl)c(Cl)ccc12 [Example 93] | – | – | 100 | efficacy (kill in %) (Lucilia cuprina): 100%
33 | COc1cc(OCCN(C)OC)cnc1COc1cccc(-c2ccccc2)c1 [Example 94] | – | – | 80 | –
34 | CON(C)CCOc1ncc(COc2ccc(Cl)c3ccccc23)cn1 [Example 98] | – | 100 | – | –
